Assay results reported in US8143279B2, “Benzimidazole-carboxamide compounds as 5-HT4 receptor agonists” (Theravance, Inc., priority 2005, dated 2012).

Key:
[1] = Pharmacokinetic study in the rat; type: in vivo
Description: Assay 6: Pharmacokinetic Study in the Rat
Aqueous solution formulations of test compounds were prepared in 0.1% lactic acid at a pH of between about 5 and about 6. Male Sprague-Dawley rats (CD strain, Charles River Laboratories, Wilmington, Mass.) were dosed with test compounds via intravenous administration (IV) at a dose of 2.5 mg/kg or by oral gavage (PO) at a dose of 5 mg/kg. The dosing volume was 1 mL/kg for IV and 2 mL/kg for PO administration. Serial blood samples were collected from animals pre-dose, and at 2 (IV only), 5, 15, and 30 min, and at 1, 2, 4, 8, and 24 hours post-dose.
Standard pharmacokinetic parameters were assessed by non-compartmental analysis (Model 201 for IV and Model 200 for PO) using WinNonlin (Version 4.0.1, Pharsight, Mountain View, Calif.). The maximum in the curve of test compound concentration in blood plasma vs. time is denoted Cmax. The area under the concentration vs. time curve from the time of dosing to the last measurable concentration (AUC(0-t)) was calculated by the linear trapezoidal rule.

[2] = Dynamic moisture sorption assessment; type: physicochemical; conditions: 25° C.
Description: Dynamic Moisture Sorption Assessment
Dynamic moisture sorption (DMS) assessment was performed at 25° C. using a VTI atmospheric microbalance, SGA-100 system (VTI Corp., Hialeah, Fla. 33016). A sample size of approximately 5-10 mg was used and the humidity was set at the ambient value at the start of the analysis. A typical DMS analysis consisted of three scans: ambient to 2% relative humidity (RH), 2% RH to 90% RH, 90% RH to 5% RH at a scan rate of 5% RH/step. The mass was measured every two minutes and the RH was changed to the next value (±5% RH) when the mass of the sample was stable to within 0.02% for 5 consecutive points.

[3] = Solid state stability assessment; type: physicochemical; conditions: three months at 40° C. and 75% RH, open glass vials
Description: Solid State Stability Assessment
Samples of the crystalline compound of Form I, prepared according to the process of Example 216, were stored in multiple open glass vials at 40° C. and 75% RH. At specific intervals, the contents of a representative vial was removed and analyzed by DSC, TGA, PXRD, and by HPLC for chemical purity.

[4] = Description: Thermogravimetric analysis (TGA) was performed using a TA Instruments Model Q-500 module. Data were collected and analyzed using TA Instruments Thermal Advantage for Q Series™ software. A sample weighing about 2 mg was placed in an aluminum pan on a platinum cradle and scanned from ambient temperature to about 300° C. with a linear heating rate of 10° C./min. The balance and furnace chambers were purged with nitrogen during use.
[5] = male Sprague-Dawley rats, PO 5 mg/kg, blood plasma

Row | SMILES | AUC(0-t) [1, 5] | Cmax [1, 5] | bioavailability ([1]; male, Sprague-Dawley, plasma, PO 5 mg/kg vs IV 2.5 mg/kg, read-out: oral bioavailability (F(%))) | weight change (moisture sorption) ([2]; 2% to 90% RH) | weight change (moisture sorption) ([2]; critical humidity range of 40% to 75% RH) | change in the DSC or TGA thermograms and PXRD pattern after storage [3] | chemical purity of the stored sample (HPLC) [3] | onset of degradation (TGA) [4]
1 | COC(=O)N1CCC(CN2CCC(CNC(=O)c3cccc4[nH]c(C(C)C)nc34)CC2)CC1 [Example 1, 4-(4-{[(2-isopropyl-1H-benzoimidazole-4-carbonyl)-amino]methyl}piperidin-1-ylmethyl)piperidine-1-carboxylic acid methyl ester] | 1200 ng·h/mL | 800 ng/mL | ~75% |  |  |  |  | 
2 | COC(=O)N1CCC(CN2CCC(CNC(=O)c3cccc4[nH]c(C(C)C)nc34)CC2)CC1 [Form I, 4-(4-{[(2-isopropyl-1H-benzoimidazole-4-carbonyl)-amino]methyl}piperidin-1-ylmethyl)piperidine-1-carboxylic acid methyl ester] |  |  |  | less than 0.25% | less than 0.1% | no detectable change | 99.5% | above 240 °C
